System: 993429-296-R-J1-PDC complex spheroid growth, percent test/control
Assay: Anticancer human tumor 993429-296-R-J1-PDC patient-derived uterine sarcoma cell line growth inhibition [Asc]
Conditions: for IC50: curve of first compound; for viability, T/C: stronger effect = lower value
Procedure: Multicellular complex tumor spheroid response to apoptosis pathway targeting inhibitors Alrizomadlin, Pelcitoclax, and Dasminapant in combination with a variety of drugs and investigational agents in selected tumor cell lines
The MDM2 inhibitor alrizomadlin, the Bcl-2/Bcl-xL inhibitor pelcitoclax, and the IAPs inhibitor dasminapant were evaluated both individually and in combination with standard of care and investigational anticancer small molecules within a complex spheroid model of solid tumors. . Complex spheroids include a stromal component modeled by human endothelial cells (HUVEC) and fibroblasts modeled by human mesenchymal stem cells (MSCs). The concentration ranges selected for each drug and investigational agent were based upon clinically achievable concentrations if the clinical Cmax of the agent was known.
Compounds. The drugs and investigational agents: alrizomadlin (APG-115; NSC831270), pelcitoclax (APG-1252; NSC835773), dasminapant (APG-1387;NSC834197), TAK-243 (NSC785004), copanlisib (NSC809693), olaparib (NSC753686), talazoparib (NSC767125), cobimetinib (NSC 768068), eltanexor (KPT-8602, NSC 794443), abemaciclib (NSC 768073), sotorasib (NSC818433), adagrasib (NSC 831453), MRTX-1133 (NSC 836407), Iadademestat (ORY1001, NSC 806812), and RMC-4630 (NSC839698), were obtained from the NCI Developmental Therapeutics Program Chemical Repository. The FDA-approved anticancer drug set is available from the Developmental Therapeutics Program at https://dtp.cancer.gov/organization/dscb/obtaining/available plates.htm. […] The stock solutions were prepared in dimethyl sulfoxide (DMSO, Sigma-Aldrich, St. Louis, MO, cat. D2650) at 800-fold the tested concentration and stored at -70 degrees C prior to their use. All drugs and investigational agents were tested over a range starting from a high concentration at or near the clinical Cmax and decreasing in half-log increments. If the clinical Cmax for an agent had not been determined, the highest concentration tested was 10 microM.
The patient-derived cancer (PDC) cell lines include five colon adenocarcinomas: 186277-243-T-J2-PDC, 616215-338-R-J1-PDC, 439559-082-T-J2-PDC, 463943-066-T-J2-PDC, and 519858-162-T-J1-PDC; three pancreatic carcinomas: 323965-272-R-J2-PDC, 521955-158-R6-J3-PDC, and 521955-158-R2-J5-PDC; two uterine sarcomas: 327498-152-R-J2-PDC and 993429-296-R-J1-PDC; two rhabdomyosarcomas: 755483-174-R-J1-PDC and 772245-204-R-J1-PDC; two soft tissue sarcomas: 126254-015-R-J1-PDC and 494315-158-R-J1-PDC; two malignant fibrous histiocytomas: 317291-083-R-J1-PDC and 596521-263-R-J1-PDC; two breast carcinomas: 171881-019-R-J1-PDC and 885512-296-R-J2-PDC; and one ovarian carcinoma: 6556581-035-R-J-PDC were obtained from the NCI PDMR, (https://pdmr.cancer.gov). The established cell lines HSSY-2 synovial sarcoma (RRID:CVCL 8719), SYO-1 synovial sarcoma (RRID:CVCL_7146), MPNST malignant peripheral neural sheath tumor were obtained from the Sloan Kettering Institute. The following established cell lines were purchased from the American Type Culture Collection (ATCC, Manassas, VA), Sor the received from the NCI repository:, PANC-1 pancreatic carcinoma (CRL-1469, RRID:CVCL_0480), OVCAR-5 ovarian carcinoma (RRID:CVCL_1628), OVCAR-8 ovarian carcinoma (RRID:CVCL_1629), , MCF-7 breast carcinoma (CRL-12584, RRID:CVCL_0031), MDA-MB-231 breast carcinoma (CRL-12532, RRID:CVCL_0062), NCI-H1876 small cell lung carcinoma (CRL-5902, RRID:CVCL_1503), NCI-H510A small cell lung carcinoma (HTB-184, RRID:CVCL_1565), NCI-H1417 (CRL-5869, RRID:CVCL_1469), and NCI-H196 small cell lung carcinoma (CRL-5823, RRID:CVCL_1509). Dr. Peter Houghton (Greehey Children's Cancer Research Institute, University of Texas Health Science Center, San Antonio, TX) provided Rh-18 rhabdomyosarcoma (RRID:CVCL_1659). Pooled donor human umbilical vein endothelial cells (HUVEC, Lonza, cat. CC-2519) and human mesenchymal stem cells (hMSC, Lonza, cat. PT-2501) were purchased from Lonza (Walkersville, MD).
Cell Culture. […]
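Further: spheroids exposed to compounds for seven days.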

Question: For `CCN1CCN(Cc2ccc(Nc3ncc(F)c(-c4cc(F)c5nc(C)n(C(C)C)c5c4)n3)nc2)CC1` + CCN1C(C(=O)NC23CCC(C(=O)O)(CC2)CC3)C(c2cccc(Cl)c2F)C2(C(=O)Nc3cc(Cl)ccc32)C12CCCCC2, which IC50 (second compound 0.03 µM) is on record?
Answer: > 1000 nM

Question: And the IC50 (second compound 0.0949 µM)?
Answer: > 1000 nM

Question: And the IC50 (second compound 0.3 µM)?
Answer: > 1000 nM

Question: And the IC50 (second compound 0.949 µM)?
Answer: > 1000 nM

Question: And the IC50 (second compound 3 µM)?
Answer: > 1000 nM

Question: And the viability, T/C (second compound 0.03 µM, first compound 0.00316 µM)?
Answer: 101%

Question: And the viability, T/C (second compound 0.03 µM, first compound 0.01 µM)?
Answer: 98.5%

Question: And the viability, T/C (second compound 0.03 µM, first compound 0.0316 µM)?
Answer: 102%

Question: And the viability, T/C (second compound 0.03 µM, first compound 0.1 µM)?
Answer: 110%

Question: What about the viability, T/C (second compound 0.03 µM, first compound 0.316 µM) of the same compound?
Answer: 103%

Question: What about the viability, T/C (second compound 0.03 µM, first compound 1 µM) of the same compound?
Answer: 125%

Question: What about the viability, T/C (second compound 0.0949 µM, first compound 0.00316 µM) of the same compound?
Answer: 99.8%

Question: And the viability, T/C (second compound 0.0949 µM, first compound 0.01 µM)?
Answer: 107%

Question: And the viability, T/C (second compound 0.0949 µM, first compound 0.0316 µM)?
Answer: 97.3%

Question: And the viability, T/C (second compound 0.0949 µM, first compound 0.1 µM)?
Answer: 95.5%

Question: And the viability, T/C (second compound 0.0949 µM, first compound 0.316 µM)?
Answer: 110%

Question: What about the viability, T/C (second compound 0.0949 µM, first compound 1 µM) of the same compound?
Answer: 98.3%

Question: And the viability, T/C (second compound 0.3 µM, first compound 0.00316 µM)?
Answer: 102%

Question: And the viability, T/C (second compound 0.3 µM, first compound 0.01 µM)?
Answer: 105%

Question: What about the viability, T/C (second compound 0.3 µM, first compound 0.0316 µM) of the same compound?
Answer: 89.5%

Question: What about the viability, T/C (second compound 0.3 µM, first compound 0.1 µM) of the same compound?
Answer: 109%

Question: What about the viability, T/C (second compound 0.3 µM, first compound 0.316 µM) of the same compound?
Answer: 120%

Question: What about the viability, T/C (second compound 0.3 µM, first compound 1 µM) of the same compound?
Answer: 104%

Question: What about the viability, T/C (second compound 0.949 µM, first compound 0.00316 µM) of the same compound?
Answer: 103%

Question: What about the viability, T/C (second compound 0.949 µM, first compound 0.01 µM) of the same compound?
Answer: 99.5%

Question: And the viability, T/C (second compound 0.949 µM, first compound 0.0316 µM)?
Answer: 106%

Question: What about the viability, T/C (second compound 0.949 µM, first compound 0.1 µM) of the same compound?
Answer: 99.9%

Question: And the viability, T/C (second compound 0.949 µM, first compound 0.316 µM)?
Answer: 107%

Question: What about the viability, T/C (second compound 0.949 µM, first compound 1 µM) of the same compound?
Answer: 131%

Question: And the viability, T/C (second compound 3 µM, first compound 0.00316 µM)?
Answer: 97.2%

Question: And the viability, T/C (second compound 3 µM, first compound 0.01 µM)?
Answer: 92.9%

Question: What about the viability, T/C (second compound 3 µM, first compound 0.0316 µM) of the same compound?
Answer: 99.7%

Question: And the viability, T/C (second compound 3 µM, first compound 0.1 µM)?
Answer: 77.8%

Question: And the viability, T/C (second compound 3 µM, first compound 0.316 µM)?
Answer: 84.5%

Question: And the viability, T/C (second compound 3 µM, first compound 1 µM)?
Answer: 115%

Question: `Cc1nc(N2CCC3(CC2)COC(C)C3N)c(CO)nc1Sc1ccnc(N)c1Cl` (stereo not given) + CNC(C)C(=O)NC1CN(S(=O)(=O)c2cccc(S(=O)(=O)N3CCC4CCC(C(=O)NC(c5ccccc5)c5ccccc5)N4C(=O)C(NC(=O)C(C)NC)C3)c2)CCC2CCC(C(=O)NC(c3ccccc3)c3ccccc3)N2C1=O was tested. Which IC50 (second compound 0.01 µM) did it give?
Answer: 103 nM

Question: And the IC50 (second compound 0.0316 µM)?
Answer: 84.7 nM

Question: What about the IC50 (second compound 0.1 µM) of the same compound?
Answer: 56.8 nM

Question: What about the IC50 (second compound 0.316 µM) of the same compound?
Answer: < 9.49 nM

Question: What about the IC50 (second compound 1 µM) of the same compound?
Answer: 107 nM

Question: And the viability, T/C (second compound 0.01 µM, first compound 0.00949 µM)?
Answer: 68.6%

Question: What about the viability, T/C (second compound 0.01 µM, first compound 0.03 µM) of the same compound?
Answer: 61.1%

Question: What about the viability, T/C (second compound 0.01 µM, first compound 0.0949 µM) of the same compound?
Answer: 49.5%

Question: What about the viability, T/C (second compound 0.01 µM, first compound 0.3 µM) of the same compound?
Answer: 42.5%

Question: What about the viability, T/C (second compound 0.01 µM, first compound 0.949 µM) of the same compound?
Answer: 37%

Question: What about the viability, T/C (second compound 0.01 µM, first compound 3 µM) of the same compound?
Answer: 32.2%

Question: What about the viability, T/C (second compound 0.0316 µM, first compound 0.00949 µM) of the same compound?
Answer: 67.5%

Question: And the viability, T/C (second compound 0.0316 µM, first compound 0.03 µM)?
Answer: 57.5%

Question: What about the viability, T/C (second compound 0.0316 µM, first compound 0.0949 µM) of the same compound?
Answer: 50.9%

Question: What about the viability, T/C (second compound 0.0316 µM, first compound 0.3 µM) of the same compound?
Answer: 39.4%

Question: What about the viability, T/C (second compound 0.0316 µM, first compound 0.949 µM) of the same compound?
Answer: 36.7%

Question: What about the viability, T/C (second compound 0.0316 µM, first compound 3 µM) of the same compound?
Answer: 30.9%

Question: What about the viability, T/C (second compound 0.1 µM, first compound 0.00949 µM) of the same compound?
Answer: 60.1%

Question: And the viability, T/C (second compound 0.1 µM, first compound 0.03 µM)?
Answer: 54.9%

Question: And the viability, T/C (second compound 0.1 µM, first compound 0.0949 µM)?
Answer: 45.2%

Question: And the viability, T/C (second compound 0.1 µM, first compound 0.3 µM)?
Answer: 39.8%

Question: What about the viability, T/C (second compound 0.1 µM, first compound 0.949 µM) of the same compound?
Answer: 29%

Question: And the viability, T/C (second compound 0.1 µM, first compound 3 µM)?
Answer: 28.3%

Question: And the viability, T/C (second compound 0.316 µM, first compound 0.00949 µM)?
Answer: 43.6%

Question: What about the viability, T/C (second compound 0.316 µM, first compound 0.03 µM) of the same compound?
Answer: 48.9%

Question: What about the viability, T/C (second compound 0.316 µM, first compound 0.0949 µM) of the same compound?
Answer: 51.9%

Question: And the viability, T/C (second compound 0.316 µM, first compound 0.3 µM)?
Answer: 41.3%

Question: What about the viability, T/C (second compound 0.316 µM, first compound 0.949 µM) of the same compound?
Answer: 32.4%

Question: And the viability, T/C (second compound 0.316 µM, first compound 3 µM)?
Answer: 29.2%

Question: And the viability, T/C (second compound 1 µM, first compound 0.00949 µM)?
Answer: 53.1%

Question: What about the viability, T/C (second compound 1 µM, first compound 0.03 µM) of the same compound?
Answer: 48.1%

Question: And the viability, T/C (second compound 1 µM, first compound 0.0949 µM)?
Answer: 52.2%

Question: And the viability, T/C (second compound 1 µM, first compound 0.3 µM)?
Answer: 40%

Question: And the viability, T/C (second compound 1 µM, first compound 0.949 µM)?
Answer: 20.5%

Question: What about the viability, T/C (second compound 1 µM, first compound 3 µM) of the same compound?
Answer: 26.7%

Source: PubChem BioAssay AID1963446 (Molecular Pharmacology Branch, DTP, NCI, 2024)
